Measured values from US9796760B2, “Modified peptide, CB receptor ligand, kit in vitro process for evaluating CB receptor bonds, uses, pharmaceutical composition for modulating CB receptor activity” (Proteimax Biotecnologia Ltda, priority 2012, dated 2017).
“Also recorded” adds a separate entry of the source. No end group written: not given here.

Legend:
[1] = Glucose in animals supplemented with 20% sucrose, 30 days-treatment; type: in vivo, Winstar rats; settings: Rimonabant (positive control, dose not given), 15th and 30th days of treatment
Experimental: (§1) Winstar rats fed with standard regimen supplemented with 20% sucrose were used in the drinking water during 60 days before and during the 30 days-treatment with SALINE (negative control), Rimonabant (positive control), Peptide 19 (Pep 19) in the concentration of 50 μg/Kg and Peptide 19 (Pep 19) in the concentration of 100 μg/Kg.

[2] = Test in brown adipose tissue, 3 days oral treatment; type: in vivo, Thin wistar rats
Experimental: (§2) Furthermore, in a treatment acute model (3 days of treatment orally in non-obese wistar rats) it was verified the brown adipose tissue activation, the retroperitoneal, inguinal and brown adipose tissues reduction, as well the adiposity ratio (FIGS. 4 to 9), effects not observed with Rimonabant.
The measure of the adipose tissue was performed after finishing the treatment. The results are expressed by the brown adipose tissue weight measured at the treatment end (scale of g/100 g). Rats administered with vehicle (saline) were subject to the same protocol (control).

[3] = Cholesterol in animals supplemented with 20% sucrose, 30 days-treatment; type: in vivo, Wistar rats; settings: Rimonabant (positive control, dose not given), after 30 days-treatment
Experimental: as §1, with “Wistar” for “Winstar”

[4] = Adiposity ratio determination, 3 days oral treatment; type: in vivo, Thin wistar rats; settings: 100 ug/Kg, 3 days orally, vs Rimonabant and/or saline groups
Experimental: as §2
Thin wistar rats were treated with a Rimonabant dosage (100 ug/Kg) or peptide 19 (Pep 19 100 ug/Kg) during 3 days orally. The measure of the adiposity ratio was performed after finishing the treatment using the formula (%), (I=Σ fat deposits/body weight×100). The results are expressed by the animal weight measured at the treatment end (scale of g/100 g). Rats administered with vehicle (saline) were subject to the same protocol (control).

[5] = Test in retroperitoneal adipose tissue, 3 days oral treatment; type: in vivo, Thin wistar rats; settings: 100 ug/Kg, 3 days orally, vs Rimonabant and/or saline groups
Experimental: as §2
The measure of the adipose tissue was performed after finishing the treatment. The results are expressed by the retroperitoneal adipose tissue weight measured for treatment purpose (scale of g/100 g). Rats administered with vehicle (saline) were subject to the same protocol (control).

[6] = Test in inguinal adipose tissue, 3 days oral treatment; type: in vivo, Thin wistar rats; settings: 100 ug/Kg, 3 days orally, vs Rimonabant and/or saline groups
Experimental: as §2
The measure of the adipose tissue was performed after finishing the treatment. The results are expressed by the inguinal adipose tissue weight measured at the treatment end (scale of g/100 g). Rats administered with vehicle (saline) were subject to the same protocol (control).

[7] = prior art statement; cited from earlier work
CB1 receptor [8] = target: CB1 receptor (Homo sapiens, UniProt P21554); settings: disclosed in WO 2011/011847; cited from earlier work
[9] = Pain test: carrageenan-induced hyperalgesia, intraplantar administration; type: in vivo, Rats; settings: 20 g by leg, immediately before carrageenan 200 g by leg, 0 h and 3 h
Experimental: It was performed the comparative analysis of the peptide intraplantar administration over the carrageenan-induced hyperalgesia. Rats were treated with peptide ([…]) immediately before the carrageenan intraplantar administration ([…]) and were evaluated using a pressure apparatus […] (0 h and empty legs) and 3 h after administration of carrageenan (black legs).

[10] = Activity on oral administration (statement, no separate method); type: in vivo, mammalian
CB1 receptor [11] = assay: ELISA with striate membranes and anti-CB1 antibody, receptor activating percentage vs non-treated membrane; type: biochemical; settings: 2 hours; for activity regarding the CB1 (receptor activating percentage regarding control): striate membranes 5 μg/pool, 1 μM of each drug, ambient temperature, variants compared with SeqID:1
Experimental: (§3) The receptor activating percentage was calculated regarding the control, non-treated membrane (100%). […] Significant differences are indicated and p<0.05.

[12] = Depression model (forced swim); type: in vivo; settings: rats
Experimental: The forced swim test was performed based on the previous tests ([Harkin et al., 2004], [Petit-Demouliere et al., 2005] and [Treit and Menard, 1998]).

CB2 receptor = assay: ELISA with striate membranes for CB2 receptor, receptor activating percentage vs non-treated membrane; type: biochemical; settings: striate membranes 5 μg/pool, 1 μM of each drug, 2 hours, ambient temperature
Experimental: as §3

Sequence of CB1 receptor (Homo sapiens, UniProt P21554) (P21554 whole entry): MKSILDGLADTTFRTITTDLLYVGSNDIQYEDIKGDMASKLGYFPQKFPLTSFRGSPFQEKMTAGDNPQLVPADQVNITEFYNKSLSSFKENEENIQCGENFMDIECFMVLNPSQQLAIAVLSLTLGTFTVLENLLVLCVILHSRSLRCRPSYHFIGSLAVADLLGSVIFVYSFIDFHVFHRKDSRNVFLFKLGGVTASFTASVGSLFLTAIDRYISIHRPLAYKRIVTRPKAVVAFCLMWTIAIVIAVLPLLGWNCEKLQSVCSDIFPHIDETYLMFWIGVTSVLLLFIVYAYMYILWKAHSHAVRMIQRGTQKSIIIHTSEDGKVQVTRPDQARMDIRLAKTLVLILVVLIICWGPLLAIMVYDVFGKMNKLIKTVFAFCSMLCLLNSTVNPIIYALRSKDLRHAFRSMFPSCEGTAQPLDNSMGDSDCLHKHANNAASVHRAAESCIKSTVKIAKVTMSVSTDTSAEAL

Cc1c(C(=O)NN2CCCCC2)nn(-c2ccc(Cl)cc2Cl)c1-c1ccc(Cl)cc1 [Rimonabant]
glycaemia [1]: lower glycaemia | brown adipose tissue mass ([2]; 100 ug/Kg, 3 days orally, vs Rimonabant and/or saline groups): not observed | brown adipose tissue activation ([2]; 3 days of treatment orally in non-obese wistar rats): not observed | cholesterol in % from SALINE animals [3]: lower cholesterol percentages | adiposity ratio [4]: not observed | retroperitoneal adipose tissue mass [5]: not observed | inguinal adipose tissue mass [6]: not observed | crossing the hematoencephalic barrier [7]: crossing the hematoencenphalic layer

CC(C)C[C@H](NC(=O)[C@H](Cc1ccccc1)NC(=O)[C@H](CCCCN)NC(=O)[C@H](Cc1ccccc1)NC(=O)[C@H](CC(N)=O)NC(=O)[C@@H](NC(=O)[C@@H]1CCCN1)C(C)C)C(=O)N[C@@H](CO)C(=O)N[C@@H](Cc1cnc[nH]1)C(=O)O [hemopressin]
binding to the CB1 receptor (CB1 receptor [8]): binding efficiently | crossing the hematoencephalic barrier [7]: does not cross the hematoencephalic barrier | antihyperalgesic activity [9]: antihyperalgesic activity

Cyclic Peptide -Asp-Ile-Ile-Ala-Asp-Asp-Glu-Pro-Leu-Thr- (DIIADDEPLT; cyclic; Artificial cyclic peptide modulator of cannabinoid receptors) [Modified peptide 6]
activity when administered orally [10]: has activity even when orally administered

DIIADDAPLT [Modified peptide 3]
activity when administered orally [10]: has activity even when orally administered | activity regarding the CB1 (receptor activating percentage regarding control) (CB1 receptor [11]; listed as SeqID:3): smaller activity

DIIADDE [Modified peptide 4]
activity when administered orally [10]: has activity even when orally administered | activity regarding the CB1 (receptor activating percentage regarding control) (CB1 receptor [11]; listed as SeqID:4): improved inverse agonist activity

DIIADDEALT [Modified peptide 5]
activity when administered orally [10]: has activity even when orally administered | activity in CB1 / endocannabinoid receptors in high dosages (CB1 receptor [11]; different dosages of drug, high dosages, listed as SeqID:5): agonist activity | activity in CB1 / endocannabinoid receptors in low dosages (CB1 receptor [11]; different dosages of drug, low dosages, listed as SeqID:5): activity inverse agonist

DIIADDEPLT [Modified peptide 1, Asp-Ile-Ile-Ala-Asp-Asp-Glu-Pro-Leu-Thr]
depression in forced swim test (immobility time) [12]: does not cause depression

DILADDEPLT [Modified peptide 2]
activity when administered orally [10]: has activity even when administered orally | activity in CB2 (receptor activating percentage regarding control) (CB2 receptor; listed as SeqID:2): inverse agonist

third amino acid of the SeqID:1 (isoleucine amino acid) was replaced for threonine: sequence wherein the third amino acid of the SeqID:1 (isoleucine) was replaced for threonine (DITADDEPLT; Artificial peptide modulator of cannabinoid receptors)
activity regarding the CB1 (receptor activating percentage regarding control) (CB1 receptor [11]): biological activity loss; also recorded: have not demonstrated activity detectable | activity in CB2 (receptor activating percentage regarding control) (CB2 receptor): have not demonstrated activity detectable
